ChEMBL document CHEMBL4813953, “Kinetics-Driven Drug Design Strategy for Next-Generation Acetylcholinesterase Inhibitors to Clinical Candidate” (J Med Chem, 2021)
Active and inactive are the calls of the source. The rule behind the calls is not given here.

Tests used:
[1] = system: Mus musculus; assay: Cognitive enhancing effect in mouse model of scopolamine-induced memory impairment assessed as reduction in escape latency time at 0.5 to 2 mg/kg, IG QD for 3 days by channel water maze test; type: functional, organism-based; settings: dose 0.5-2 mg/kg, time 3.0 day
[2] = Cmax in Sprague-Dawley rat plasma at 10 mg/kg, po; type: ADME, organism-based; design: route oral, dose 10 mg/kg
[3] = Toxicity in Beagle dog assessed as animal death at 1 to 20 mg/kg, po; type: organism-based, Canis lupus familiaris; settings: in vivo, dose 1-20 mg/kg
[4] = Cmax in human plasma at 12 mg, po; type: ADME, cell-free; design: route oral, dose 12 mg
[5] = AUC (0 to infinity) in Beagle dog at 0.25 mg/kg, iv; type: ADME, organism-based, Canis lupus familiaris; design: route intravenous, time infinity, dose 0.25 mg/kg; settings: in vivo
[6] = Tmax in Sprague-Dawley rat brain at 10 mg/kg, po; type: ADME, organism-based
[7] = Tmax in human plasma at 1 mg, po; type: ADME, cell-free
[8] = Toxicity in Sprague-Dawley rat assessed as animal death at upto 30 mg/kg, po for 4 weeks; type: organism-based; settings: in vivo, 672 h
[9] = molecular target: Butyrylcholinesterase (Rattus norvegicus, UniProt Q9JKC1); assay: Inhibition of rat serum BuChE using S-butyrylthiocholine iodide as substrate incubated for 8 mins by Ellman's method; type: cell-free
[10] = Cmax in Beagle dog at 0.25 mg/kg, po; type: ADME, organism-based, Canis lupus familiaris; design: route oral, dose 0.25 mg/kg; settings: in vivo
[11] = Half life in Sprague-Dawley rat plasma at 10 mg/kg, po; type: ADME, organism-based
[12] = molecular target: T1, Acetylcholinesterase (Mus musculus) (UniProt P21836); assay: Ex vivo inhibition of AChE in ICR mouse cortex homogenate at 2 mg/kg, ig using acetylthiocholine iodide as substrate measured after 30 to 240 mins by DTNB reagent based assay; type: functional, organism-based; settings: time 30-240 min
T1 sequence (whole entry): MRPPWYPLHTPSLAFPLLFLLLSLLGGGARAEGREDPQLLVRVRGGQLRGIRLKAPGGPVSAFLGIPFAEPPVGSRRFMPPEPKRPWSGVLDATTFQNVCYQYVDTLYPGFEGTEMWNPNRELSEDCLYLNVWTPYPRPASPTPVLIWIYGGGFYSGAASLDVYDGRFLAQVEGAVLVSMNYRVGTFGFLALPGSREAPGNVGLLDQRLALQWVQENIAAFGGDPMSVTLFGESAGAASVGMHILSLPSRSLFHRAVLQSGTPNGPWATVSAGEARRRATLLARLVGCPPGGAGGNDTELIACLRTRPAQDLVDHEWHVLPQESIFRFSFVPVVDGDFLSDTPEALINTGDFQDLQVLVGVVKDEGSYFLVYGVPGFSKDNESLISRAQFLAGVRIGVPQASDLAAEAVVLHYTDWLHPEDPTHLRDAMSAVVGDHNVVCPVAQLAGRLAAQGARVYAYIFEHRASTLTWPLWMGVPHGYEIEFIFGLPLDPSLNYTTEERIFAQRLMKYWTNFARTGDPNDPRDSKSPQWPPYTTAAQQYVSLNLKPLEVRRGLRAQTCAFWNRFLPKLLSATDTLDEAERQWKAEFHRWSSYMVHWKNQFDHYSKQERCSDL

[13] = Tmax in Beagle dog at 0.25 mg/kg, po; type: ADME, organism-based, Canis lupus familiaris; settings: in vivo
[14] = molecular target: Cytochrome P450 3A4 (Homo sapiens, UniProt P08684); assay: Inhibition of CYP3A4 in human hepatocytes; type: ADME, cell-based, Hepatocyte
[15] = Oral bioavailability in Beagle dog at 0.25 mg/kg; type: ADME, organism-based, Canis lupus familiaris; settings: in vivo
[16] = molecular target: Cytochrome P450 2C9 (Homo sapiens, UniProt P11712); assay: Inhibition of CYP2C9 in human hepatocytes; type: ADME, cell-based, Hepatocyte
[17] = molecular target: T2, Cytochrome P450 2C8 (Homo sapiens, UniProt P10632); assay: Inhibition of CYP2C8 in human hepatocytes; type: ADME, cell-based, Hepatocyte
T2 sequence (P10632 whole entry): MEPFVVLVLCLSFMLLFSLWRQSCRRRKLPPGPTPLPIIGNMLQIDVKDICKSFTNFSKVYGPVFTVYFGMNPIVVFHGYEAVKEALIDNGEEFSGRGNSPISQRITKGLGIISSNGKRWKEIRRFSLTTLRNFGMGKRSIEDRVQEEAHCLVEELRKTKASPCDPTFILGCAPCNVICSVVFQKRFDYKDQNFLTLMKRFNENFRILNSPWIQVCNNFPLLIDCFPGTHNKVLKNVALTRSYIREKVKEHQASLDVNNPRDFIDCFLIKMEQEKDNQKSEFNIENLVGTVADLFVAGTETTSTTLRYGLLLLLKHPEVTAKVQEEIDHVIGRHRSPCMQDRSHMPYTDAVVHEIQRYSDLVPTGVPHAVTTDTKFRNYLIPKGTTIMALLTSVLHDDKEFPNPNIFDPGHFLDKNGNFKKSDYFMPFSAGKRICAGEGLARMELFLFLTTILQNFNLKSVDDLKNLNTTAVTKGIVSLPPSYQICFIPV

[18] = Genotoxicity in Salmonella typhimurium TA98 by Ames test; type: toxicity; settings: salmonella enterica subsp. enterica serovar typhimurium
[19] = Cmax in human plasma at 2 mg, po; type: ADME, cell-free; design: route oral, dose 2 mg
[20] = Oral bioavailability in Sprague-Dawley rat at 0.5 mg/kg; type: ADME, organism-based; settings: in vivo
[21] = Genotoxicity in Salmonella typhimurium TA97 by Ames test; type: toxicity; settings: salmonella enterica subsp. enterica serovar typhimurium
[22] = Half life in Sprague-Dawley rat at 0.5 mg/kg, po; type: ADME, organism-based; settings: in vivo
[23] = molecular target: Acetylcholinesterase (Homo sapiens, UniProt P22303); assay: Binding affinity to CM5 sensor chip immobilized recombinant human AChE assessed as dissociation constant at 298.15 K by surface plasmon resonance assay
[24] = Genotoxicity in Salmonella typhimurium TA100 by Ames test; type: toxicity; settings: salmonella enterica subsp. enterica serovar typhimurium
[25] = Ratio of drug concentration in brain to plasma of Sprague-Dawley rat at 10 mg/kg, po; type: ADME, organism-based; settings: read-out: BPR
[26] = molecular target: Cytochrome P450 2D6 (Homo sapiens, UniProt P10635); assay: Inhibition of CYP2D6 in human hepatocytes; type: ADME, cell-based, Hepatocyte
[27] = Genotoxicity in ICR mouse at 7.5 to 30 mg/kg, po administered once a day for 2 consecutive days by micronucleus test; type: toxicity, organism-based; settings: in vivo, 48 h, dose 7.5-30 mg/kg, time 2 day
[28] = Tmax in Sprague-Dawley rat at 0.5 mg/kg, po; type: ADME, organism-based; settings: in vivo
[29] = Tmax in human plasma at 2 mg, po; type: ADME, cell-free
[30] = Cmax in Sprague-Dawley rat brain at 10 mg/kg, po; type: ADME, organism-based; design: route oral, dose 10 mg/kg
[31] = Cmax in human plasma at 4 mg, po; type: ADME, cell-free; design: route oral, dose 4 mg
[32] = Efflux ratio of apparent permeability across basolateral to apical side over apical to basolateral side in human Caco-2 cells; type: ADME, cell-based
[33] = Toxicity in Beagle dog assessed as effect on respiration at 0.1 to 1 mg/kg; type: organism-based, Canis lupus familiaris; settings: in vivo, dose 0.1-1 mg/kg
[34] = Terminal half life in human plasma at 4 mg, po; type: ADME, cell-free; settings: read-out: beta t1/2 (converted)
[35] = AUC (0 to infinity) in Sprague-Dawley rat at 0.5 mg/kg, iv; type: ADME, organism-based; design: time infinity, route intravenous, dose 0.5 mg/kg; settings: in vivo
[36] = Terminal half life in human plasma at 2 mg, po; type: ADME, cell-free; settings: read-out: beta t1/2 (converted)
[37] = Selectivity ratio of IC50 for human ERG to IC50 for rat cortex homogenate acetylcholinesterase

Chain of Cytochrome P450 2C9 (P11712 whole entry): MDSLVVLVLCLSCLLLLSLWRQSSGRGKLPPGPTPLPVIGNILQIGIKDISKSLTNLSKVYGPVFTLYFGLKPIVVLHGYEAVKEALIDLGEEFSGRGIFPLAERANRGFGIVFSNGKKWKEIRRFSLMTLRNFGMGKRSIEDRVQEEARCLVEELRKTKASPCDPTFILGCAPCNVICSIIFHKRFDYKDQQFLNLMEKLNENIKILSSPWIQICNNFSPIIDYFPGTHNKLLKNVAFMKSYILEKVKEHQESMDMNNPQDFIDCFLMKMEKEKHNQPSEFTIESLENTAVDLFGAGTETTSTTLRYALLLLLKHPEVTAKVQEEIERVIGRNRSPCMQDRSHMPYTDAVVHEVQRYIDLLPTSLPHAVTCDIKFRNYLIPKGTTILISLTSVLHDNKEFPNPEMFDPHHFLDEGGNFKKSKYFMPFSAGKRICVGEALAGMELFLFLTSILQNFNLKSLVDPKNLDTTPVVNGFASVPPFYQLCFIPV
Chain of Butyrylcholinesterase (Q9JKC1 whole entry): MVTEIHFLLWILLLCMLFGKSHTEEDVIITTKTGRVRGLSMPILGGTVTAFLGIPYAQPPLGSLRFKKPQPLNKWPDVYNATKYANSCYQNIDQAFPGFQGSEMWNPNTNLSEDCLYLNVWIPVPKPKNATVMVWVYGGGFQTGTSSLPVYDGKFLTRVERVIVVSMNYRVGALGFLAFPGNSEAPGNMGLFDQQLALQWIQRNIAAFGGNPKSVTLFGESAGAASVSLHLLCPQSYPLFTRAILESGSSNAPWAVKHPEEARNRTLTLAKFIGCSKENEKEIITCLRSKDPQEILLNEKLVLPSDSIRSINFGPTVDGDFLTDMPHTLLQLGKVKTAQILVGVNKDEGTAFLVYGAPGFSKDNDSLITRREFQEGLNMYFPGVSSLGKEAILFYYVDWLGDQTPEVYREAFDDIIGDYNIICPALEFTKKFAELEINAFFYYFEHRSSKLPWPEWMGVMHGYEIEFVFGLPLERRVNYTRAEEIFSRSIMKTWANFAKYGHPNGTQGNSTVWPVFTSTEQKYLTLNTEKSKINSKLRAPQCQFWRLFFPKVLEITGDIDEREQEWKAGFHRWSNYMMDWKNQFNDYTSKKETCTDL
Chain of Cytochrome P450 3A4 (P08684 whole entry): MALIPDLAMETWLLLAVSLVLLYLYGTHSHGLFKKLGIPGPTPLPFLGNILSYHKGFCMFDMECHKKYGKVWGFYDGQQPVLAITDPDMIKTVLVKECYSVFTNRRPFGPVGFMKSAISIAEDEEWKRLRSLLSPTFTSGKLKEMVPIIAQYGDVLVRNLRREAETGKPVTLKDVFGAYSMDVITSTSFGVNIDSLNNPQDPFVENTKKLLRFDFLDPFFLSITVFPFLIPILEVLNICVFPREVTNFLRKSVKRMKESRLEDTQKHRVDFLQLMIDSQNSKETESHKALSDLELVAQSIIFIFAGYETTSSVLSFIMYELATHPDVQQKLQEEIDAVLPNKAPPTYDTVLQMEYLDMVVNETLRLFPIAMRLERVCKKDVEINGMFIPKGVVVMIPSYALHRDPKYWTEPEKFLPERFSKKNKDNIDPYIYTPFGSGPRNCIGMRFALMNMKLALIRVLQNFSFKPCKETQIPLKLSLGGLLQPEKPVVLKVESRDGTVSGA
Chain of Acetylcholinesterase (P22303 whole entry): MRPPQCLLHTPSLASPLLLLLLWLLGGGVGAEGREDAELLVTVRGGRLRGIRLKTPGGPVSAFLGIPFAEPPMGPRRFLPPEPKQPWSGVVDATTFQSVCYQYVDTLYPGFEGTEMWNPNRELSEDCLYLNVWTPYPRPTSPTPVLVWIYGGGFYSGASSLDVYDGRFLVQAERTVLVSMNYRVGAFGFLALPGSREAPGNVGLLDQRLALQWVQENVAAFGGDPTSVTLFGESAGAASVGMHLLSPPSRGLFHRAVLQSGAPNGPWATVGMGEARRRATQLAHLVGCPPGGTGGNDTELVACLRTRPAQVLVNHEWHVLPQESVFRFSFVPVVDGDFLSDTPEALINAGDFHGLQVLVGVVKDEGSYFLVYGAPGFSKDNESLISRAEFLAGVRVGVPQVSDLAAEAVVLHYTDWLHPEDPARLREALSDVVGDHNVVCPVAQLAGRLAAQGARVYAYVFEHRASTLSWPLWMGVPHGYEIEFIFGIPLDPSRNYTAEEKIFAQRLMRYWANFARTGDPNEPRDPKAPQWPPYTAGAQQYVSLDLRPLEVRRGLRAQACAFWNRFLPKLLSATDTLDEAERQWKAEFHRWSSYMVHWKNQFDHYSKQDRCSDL
Chain of Cytochrome P450 2D6 (P10635 whole entry): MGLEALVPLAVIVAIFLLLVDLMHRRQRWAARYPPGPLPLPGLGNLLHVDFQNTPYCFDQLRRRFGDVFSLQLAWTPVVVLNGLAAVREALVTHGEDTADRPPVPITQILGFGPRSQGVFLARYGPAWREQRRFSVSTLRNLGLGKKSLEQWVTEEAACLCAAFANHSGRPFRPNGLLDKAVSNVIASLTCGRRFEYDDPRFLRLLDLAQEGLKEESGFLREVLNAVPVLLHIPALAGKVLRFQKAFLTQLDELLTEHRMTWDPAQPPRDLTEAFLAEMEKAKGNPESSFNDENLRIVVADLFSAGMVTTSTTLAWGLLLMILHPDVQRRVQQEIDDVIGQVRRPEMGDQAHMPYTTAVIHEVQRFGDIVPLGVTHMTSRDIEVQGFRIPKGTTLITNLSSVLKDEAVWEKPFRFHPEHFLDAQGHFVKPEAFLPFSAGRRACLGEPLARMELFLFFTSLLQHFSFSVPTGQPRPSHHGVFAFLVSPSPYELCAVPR

COc1cc2c(cc1OC)C(=O)C(CC1(F)CCN(Cc3ccccc3F)CC1)C2 (configuration not stated)
Activity [1]: Active | Cmax [2]: 215 ng/mL | Activity [3]: Non-Toxic | Cmax [4]: 23.5 ng/mL | AUC(0-inf) [5]: 256 ng·h/mL | Tmax [6]: 0.5 h | Tmax [7]: 1.5 h | Activity [8]: Non-Toxic | IC50 [9]: 31.7 µM | Cmax [10]: 16.9 ng/mL | half-life [11]: 5.57 h | inhibition [12]: Active | Tmax [13]: 0.92 h | IC50 [14]: > 30 µM | bioavailability [15]: 61.3% | IC50 [16]: 4.77 µM | IC50 [17]: > 30 µM | Activity [18]: Non-Toxic | Cmax [19]: 2.43 ng/mL | bioavailability [20]: 45.3% | Activity [21]: Non-Toxic | half-life [22]: 4.17 h | Kd [23]: 0.0035 µM | Activity [24]: Non-Toxic | Kp [25]: 5.4 | IC50 [26]: > 30 µM | Activity [27]: Non-Toxic | Tmax [28]: 0.63 h | Tmax [29]: 1.5 h | Cmax [30]: 831 ng/mL | Cmax [31]: 8.61 ng/mL | efflux ratio [32]: 0.67 | Activity [33]: Non-Toxic | half-life [34]: 30.8 h | AUC(0-inf) [35]: 395 ng·h/mL | half-life [36]: 20.7 h | Ratio IC50 [37]: 10700
